US12144785B2, “Composition of vitamin K and vitamin D for treating or preventing cardiovascular disease” (NATTOPHARMA AS, priority 2002, dated 2024)

System: thoracic aorta
Experiment: Aortic calcification in warfarin-treated rats: total calcium in thoracic aorta extract by atomic absorptiometry
Type: in vivo
Details: for Pre-formed calcium crystals / aortic calcification on high vitamin K diet: "high K": 6 weeks warfarin, then 6 weeks diet with 100 μg/g vitamin K, FIG. 6, means of K1 and K2 groups; for Difference between the outcomes for K1 and K2: high vitamin K diet after 6 weeks warfarin
Experimental: We performed and experiment using 48 rats. Each point in the various curves shown in FIGS. 3-6 is the mean of six rats, which were sacrificed. The thoracic aorta was dissected, homogenized, and precipitated calcium salts were dissolved in formic acid. The total calcium concentration in the extract was assessed by atomic absorptiometry, and is expressed as microgram calcium per gram of tissue.
Six of them were killed at baseline, six after 6 weeks, and the last six after 12 weeks. Apart from the cellular calcium, no accretion of calcium was observed during the test period. […] The protocol used involves the oral administration of a mixture of warfarin (3 mg/g of food) and vitamin K1 (1.5 mg/g of food) and is explained extensively in: H. M. H. Spronk et al, Tissue-specific utilization of menaquinone-4 results in the prevention of arterial calcification in warfarin-treated rats, Journal of Vascular Research 2003; 40:531-537. This treatment is designated as “low K”. Six rats were killed after 6 weeks of treatment, and another six after 12 weeks of treatment.
The other rats were first treated for six weeks with warfarin. One group of animals was subsequently fed the standard diet containing 5 μg vitamin K per g of food (indicated as “norm K”). […] Apparently, the presence of calcium precipitates is a sufficient trigger to continue further calcification (see FIG. 5) when using a normal diet.
Finally, we used two groups of six rats who had received the first 6-week treatment with warfarin, and a high vitamin K diet in the second 6-week period. One group received a diet containing […] of vitamin K1, the other one a diet containing 100 μg/g of vitamin K2 (menaquinone-4). Since there was no difference between the outcomes for K1 and K2, we present the means of both groups in FIG. 6 (designated as “high K”). […] This may be related to the relatively high dose used, and different efficacies may still be found from dose-response experiments. […] It may be expected that after prolonged treatment all calcified precipitates will dissolve by high vitamin K intake. The dose used for dissolving calcified precipitates in the aorta was 20 times the normal dose used (compared to the recommended allowance in humans). If extrapolated to humans the effective intake of vitamin K should thus be increased from 100 μg/day to 2 mg/day. Experiments in which lower doses are used will be initiated. However, it is likely that a similar effect will be observed at lower doses, even as low as 1-2 times the normal daily intake. This will depend upon factors such as vitamin K absorption since synthetic supplemented vitamin K is typically absorbed better (e.g. 10-20 fold) than nutritional vitamin K (e.g. which may be bound to chloroplasts in the food matrix).

Molecule | Pre-formed calcium crystals / aortic calcification on high vitamin K diet | Difference between the outcomes for K1 and K2 | Calcium in the arterial wall ("low K": warfarin 3 mg/g food + vitamin K1 1.5 mg/g food, oral, 6 and 12 weeks, FIG. 4) | Aortic calcification after change to the standard diet ("norm K": 6 weeks warfarin, then standard diet with 5 μg vitamin K per g of food, FIG. 5)
CC1=C(C/C=C(\C)CCC[C@H](C)CCC[C@H](C)CCCC(C)C)C(=O)c2ccccc2C1=O [vitamin K1, phylloquinone] | dissolved to a great deal | no difference |  | 
CC(C)=CCC/C(C)=C/CC/C(C)=C/CC/C(C)=C/CC1=C(C)C(=O)c2ccccc2C1=O [vitamin K2, menaquinone-4] | dissolved to a great deal | no difference |  | 
CC(=O)CC(c1ccccc1)c1c(O)c2ccccc2oc1=O (stereo not drawn) [warfarin] |  |  | constant increase | 
vitamin K |  |  |  | did not stop
